Results on one molecule are retold here after patent US20050271588A1, “Liposome targeting of matrix metalloproteinase inhibitors” (priority 2001, published 2005).

The subject of data set [1] is HT1080 fibrosarcoma cells. The data set is described as follows: Uptake of liposome-encapsulated rhodamine B by HT1080 cells. To be noted: for Enhanced liposome uptake: HT1080. It counts as cell-based, human. How it is done: (§1) In another series of experiments the water-soluble fluorescent marker rhodamine B was encapsulated into liposomes and its uptake by cells was measured. Samples for rhodamine B uptake were prepared by mixing 60 μl of POPC/POPE (80/20, mol/mol, one mM) liposomes containing 10 μM rhodamine B to 300 μl of DMEM medium supplemented with 10% fetal bovine serum, Glutamax I, penicillin 100 U/ml and streptomycin 0.1 mg/ml. Peptides were then added to obtain a final concentration of […]. Ten μl (10^5 cells) of medium containing the indicated cells were combined with the LUVs. After an incubation for 15 min at 37° C. or +4° C. liposomes not bound to the cells were removed from 96-well plates by rinsing three times with cold PBS. The +4° C. temperature served as a control for non-endocytotic liposome uptake by cells (Oess and Hildt, 2000). The relative amount of rhodamine B associated with the cells was determined using microplate reader with excitation at 535 nm and emission at 595 nm.
We also preincubated cells with phorbol ester (TPA) (50 nM). Preincubation times varied from 15 to 75 min. Treatment of cells by phorbol ester (TPA) increases both expression and secretion of MMP-9 (Toth et al., 1997). Results are presented as RFI=I/I0, where RFI is relative fluorescence intensity, I0 is the emission intensity for the control, 2 μM rhodamine B in LUVs without the peptides, and I is the rhodamine emission for the peptide-liposome complexes taken up by the cells. […] M-17 inhibits the binding of MMP-9 to the substrate and this inhibition is expected to be concentration dependent. […]
Cell cultures and fluorescence microscopy. […] Uptake of rhodamine B containing liposomes by the cultured cells was verified by fluorescence microscopy. An inverted fluorescence microscope (Zeiss IM 35) equipped with Nikon extra long working distance objectives (20×) and (40×) were used. […] Fluorescence images were viewed with a Peltier-cooled digital camera (C4742-95, Hamamatsu, Japan) connected to a computer and operated by software (Hipic 5.0) provided by the instrument manufacturer.

Data set [2] can be described thus: Penetration of peptides into lipid monolayers (surface pressure). It counts as physicochemical. To be noted: eggPC monolayer, peptide 200 μM. How it is done:
Interaction of peptides with lipid monolayers. Penetration of peptides into mono-molecular lipid films was measured using magnetically stirred circular wells (subphase volume 400 μl). Surface pressure (π) was monitored with a Wilhelmy wire attached to a microbalance (μ TroughS, Kibron Inc., Helsinki, Finland) connected to a Pentium PC. Lipids were spread on the air-buffer (PBS, pH 7) interface in chloroform (approx. one mg/ml) to different initial surface pressures (π0) and were allowed to equilibrate for 15 min before the addition of the indicated peptides (4 μ1,10 mg/ml in H2O and CWL in DMSO) into the subphase. The increment in π from the initial surface pressures (π0) after the addition of peptide was complete in approximately 20 min and the difference between π0 and the value observed after binding of the peptide into the film was taken as Δπ. All measurements were performed at ambient temperature (˜+24° C.). The data are represented as Δπ vs. […] (Brockman, 1999).

A short description of data set [3]: Trp quenching by I- (Stern-Volmer). It counts as physicochemical. To be noted: I- quencher. Here is the method: The extent of exposure of Trp to the aqueous phase was studied using I— as a collisional quencher (Lakowicz, 1999). The extent of quenching was calculated by using the equation: F0/F=1+k[Q]=1+kqτ0[Q] where F0 and F are Trp fluorescence intensities at 345 nm in the absence and presence of the quencher, Q, τ0 is Trp fluorescence lifetime in the absence of the quencher, k is the Stern-Volmer constant (obtained from the slope of the linear fit of the data). Fluorescence of Trp in CTT (5 μM) and its quenching were measured in the absence and presence of POPC/POPE (80:20, mol/mol) LUVs (final lipid concentration of 0.5 mM). The results were corrected for background caused by PBS and liposomes. Assay for lipid mixing. The ability of the CTT, CLP, STT, and CWL peptides to induce liposome fusion was assessed by measuring lipid mixing, as described earlier (Struck et al., 1981). In brief, NBD-PE (X=0.01) and DPPRho (X=0.01) were incorporated into liposomes (POPC/POPE, 78/20, mol/mol). Due to the spectral overlap of NBD-PE (donor) emission and DPPRho (acceptor) absorption resonance energy transfer between these dyes is highly efficient. As liposomes containing NBD-PE and DPPRho are mixed with non-labeled liposomes, fusion is observed as an increase in the emission intensity of NBD-PE due to the dilution of probes. […] All fluorescence measurements were done at 37° C.

For another data set, the system named is U937 cells. Description: Uptake of liposome-encapsulated rhodamine B by U937 cells. It counts as cell-based. Here is the method:
as §1
We also preincubated cells with phorbol ester (TPA) (50 nM). Preincubation times varied from 15 to 75 min. Treatment of cells by phorbol ester (TPA) increases both expression and secretion of MMP-9 (Toth et al., 1997). Results are presented as RFI=I/I0, where RFI is relative fluorescence intensity, I0 is the emission intensity for the control, 2 μM rhodamine B in LUVs without the peptides, and I is the rhodamine emission for the peptide-liposome complexes taken up by the cells. […] M-17 inhibits the binding of MMP-9 to the substrate and this inhibition is expected to be concentration dependent. It is not known if rabbit polyclonal antibody blocks human MMP-2 (Murphy et al., 1994). Final concentrations of the indicated peptide, […] were 85 μM, 0.2 mM, 20 μg/ml, and 0.4 μM, respectively.
Cell cultures and fluorescence microscopy. U937 (ECACC 85011440), HT 1080 (ECACC 85111505), and CHO (ECACC 85050302) cells were cultured in RPMI or DMEM medium supplemented with 10% fetal bovine serum, Glutamax I, penicillin (100 U/ml), and streptomycin (0.1 mg/ml). Uptake of rhodamine B containing liposomes by the cultured cells was verified by fluorescence microscopy. An inverted fluorescence microscope (Zeiss IM 35) equipped with Nikon extra long working distance objectives (20×) and (40×) were used. Samples were prepared as described for the rhodamine uptake assay, with slight modifications. Accordingly, instead of washing, U937, HT 1080, and CHO cells with the rhodamine-containing liposomes and in cell culture medium were transferred into Nunclon 48 plate wells. Excitation and emission wavelengths were selected by suitable bandpass filters (Melles-Griot) transmitting in the range 535 nm and >600 nm, respectively. Fluorescence images were viewed with a Peltier-cooled digital camera (C4742-95, Hamamatsu, Japan) connected to a computer and operated by software (Hipic 5.0) provided by the instrument manufacturer.

The next data set relates to tumor. To be noted: mouse models; cited from earlier work.
Another data set concerns the target T1, MMP-9 (Homo sapiens, UniProt P14780).
T1 construct: made in house
The data set is described as follows: Gelatinase assay with fluorogenic peptide substrate. It counts as biochemical. To be noted: fluorogenic substrate; text says 8 μM 'in both assays'; liposomes 200 μM POPC/POPE. Here is the method: The activity of MMP-9 was measured also using the fluorogenic peptide substrate MCA-Pro-Leu-Ala-Nva-Dpa-Ala-Arg (Calbiochem, San Diego, Calif., USA). More specifically, 50 ng of MMP-9 was preincubated in PBS for 30 min at RT in the absence or presence of CTT or its liposome complex. Subsequently, the fluorogenic substrate was added to a final concentration of 0.1 mM and the incubation was continued at 37° C. for 15 min, whereafter fluorescence intensities were measured with exitation at 340 nm and emission at 390 nm in a microtiter plate reader.

Positions of bridges follow the written chain, without caps; N, C: chain ends. Residues, ends and D or L forms follow the SMILES beside them.

T1 sequence (P14780 94-707): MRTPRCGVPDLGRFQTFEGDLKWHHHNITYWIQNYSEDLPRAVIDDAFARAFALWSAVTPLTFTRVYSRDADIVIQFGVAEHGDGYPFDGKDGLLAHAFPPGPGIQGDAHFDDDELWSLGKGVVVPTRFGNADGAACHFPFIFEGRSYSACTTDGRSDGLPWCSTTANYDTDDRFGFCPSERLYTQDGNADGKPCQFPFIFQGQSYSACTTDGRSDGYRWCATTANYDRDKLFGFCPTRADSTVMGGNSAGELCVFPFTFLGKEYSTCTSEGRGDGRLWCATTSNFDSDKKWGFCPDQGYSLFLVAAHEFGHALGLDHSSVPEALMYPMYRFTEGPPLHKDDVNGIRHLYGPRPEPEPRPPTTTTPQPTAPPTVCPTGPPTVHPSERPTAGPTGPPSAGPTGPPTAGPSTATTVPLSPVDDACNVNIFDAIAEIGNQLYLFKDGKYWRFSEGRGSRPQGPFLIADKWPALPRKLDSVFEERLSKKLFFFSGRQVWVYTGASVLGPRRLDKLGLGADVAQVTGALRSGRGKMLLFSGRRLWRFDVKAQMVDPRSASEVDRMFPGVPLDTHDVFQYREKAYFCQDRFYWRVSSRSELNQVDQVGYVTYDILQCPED

A word on the IC50: it is the concentration that inhibits the measured activity by half. Consider `CC(C)C[C@@H]1NC(=O)[C@H]([C@@H](C)O)NC(=O)[C@H](Cc2ccccc2)NC(=O)CNC(=O)[C@H](Cc2c[nH]c3ccccc23)NC(=O)[C@H](Cc2c[nH]cn2)NC(=O)[C@H]([C@@H](C)O)NC(=O)[C@H]([C@@H](C)O)NC(=O)[C@@H](N)CSSC[C@@H](C(=O)O)NC1=O` [CTT] (H-CTTHWGFTLC-OH; disulfide 1-10; N-terminus and C-terminus assumed), for which the Enhanced liposome uptake entry in data set [1] (4° C.) is “not at 4 °C”; in data set [1] (37° C.) it was “evident only at 37 °C”. Moreover, the “Rhodamine intake, fluorescence microscopy” value in data set [1] (HT 1080, liposomes with vs without CTT) is “enhanced”; with U937 cells (U937, liposomes with vs without CTT) it was “enhanced”. Besides, the “Initial monolayer packing pressure above which membrane penetration was abolished” value in data set [2] is listed as 38 mN/m. Further, the Stern-Volmer constant worked out at 0.0087 in data set [3] (absence of liposomes) and 0.0034 in data set [3] (presence of liposomes). Moreover, the “Enhancement of uptake of liposome-encapsulated rhodamine vs liposomes lacking peptide” value with U937 cells (U937, fluorescence plate-reader) is recorded as 3.6 fold. The “Uptake of free rhodamine B” value in the data set with U937 cells (no liposomes) is “did not promote”. Besides, in the data set with tumor, the “Tumor progression in vivo” value is reported as “inhibited”. This molecule also registered an IC50 at MMP-9 of 8 µM.
